The values that follow come from patent US7888363B2, “Viral polymerase inhibitors” (Boehringer Ingelheim International GmbH, priority 2003, dated 2011).

The target of the first assay is hepatitis C virus RNA dependant polymerase (NS5B) (Hepatitis C virus genotype 1b, UniProt P26663). Briefly: Inhibition of NS5B RNA dependent RNA polymerase activity. In kind it is biochemical. As to conditions: Table 1; HCV NS5B polymerase. As to the method: A suitable assay is described in the examples.
hepatitis C virus RNA dependant polymerase (NS5B), sequence (P26663 2420-3010): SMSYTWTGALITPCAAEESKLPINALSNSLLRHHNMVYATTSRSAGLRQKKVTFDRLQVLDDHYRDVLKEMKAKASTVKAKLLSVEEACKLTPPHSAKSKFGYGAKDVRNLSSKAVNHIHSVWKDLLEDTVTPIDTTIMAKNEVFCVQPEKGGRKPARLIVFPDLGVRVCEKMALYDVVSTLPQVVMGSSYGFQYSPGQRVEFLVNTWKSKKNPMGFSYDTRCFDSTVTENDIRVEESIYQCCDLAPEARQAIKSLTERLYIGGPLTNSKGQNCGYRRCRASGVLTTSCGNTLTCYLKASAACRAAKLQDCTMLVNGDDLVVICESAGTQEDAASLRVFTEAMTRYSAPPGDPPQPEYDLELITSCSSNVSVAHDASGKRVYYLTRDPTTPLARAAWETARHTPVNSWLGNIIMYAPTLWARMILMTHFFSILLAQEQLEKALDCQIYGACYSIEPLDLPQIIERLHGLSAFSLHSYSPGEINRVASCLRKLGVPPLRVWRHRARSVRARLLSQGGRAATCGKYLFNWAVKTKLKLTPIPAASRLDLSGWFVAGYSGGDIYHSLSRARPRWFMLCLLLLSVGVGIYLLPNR
Inhibition of NS5B RNA Dependent RNA Polymerase Activity
The compounds of the invention were tested for inhibitory activity against the hepatitis C virus RNA dependant polymerase (NS5B), according to protocol described in WO 03/010141
In general, IC50 refers to the midpoint of a concentration-inhibition curve. Turning to `Cn1c(C(=O)O)cc2cc(NC(=O)C(C)(C)NC(=O)Cn3c(-c4ccoc4)c(C4CCCCC4)c4ccc(C(=O)O)cc43)ccc21` [Example 1054], the IC50 was below 200 nM. In the case of `O=C(Cn1c(-c2ccoc2)c(C2CCCCC2)c2ccc(C(=O)O)cc21)NCC1CCCCC1` [Example 1089], the IC50 was in the range of 200 to 1000 nM. `O=C(O)c1ccc2c(C3CCCCC3)c(-c3ccoc3)n(CC(=O)N3CCCC(C(=O)O)C3)c2c1` (stereo not drawn) [Example 1099]: the IC50 was below 200 nM. Compound `O=C(O)c1ccc2c(C3CCCCC3)c(-c3ccoc3)n(CC(=O)N3CCC(C(=O)O)CC3)c2c1` [Example 1058] gave an IC50 below 200 nM. Take `O=C(Cn1c(-c2ccoc2)c(C2CCCCC2)c2ccc(C(=O)O)cc21)NNC(=O)c1ccncc1` [Example 1059]: the IC50 was below 200 nM. In turn, `NC(=O)Cn1c(-c2ccoc2)c(C2CCCCC2)c2ccc(C(=O)O)cc21` [Example 1065] had an IC50 of 200 to 1000 nM. Consider `CCCN(CCC)C(=O)Cn1c(-c2ccoc2)c(C2CCCCC2)c2ccc(C(=O)O)cc21` [Example 1011], for which the IC50 is 200 to 1000 nM.

As to `O=C(Cn1c(-c2ccoc2)c(C2CCCCC2)c2ccc(C(=O)O)cc21)N[C@@H](Cc1c[nH]c2ccc(O)cc12)C(=O)O` [Example 1081], the IC50 was below 200 nM. `CC(C)(NC(=O)Cn1c(-c2ccccn2)c(C2CCCCC2)c2ccc(C(=O)O)cc21)C(=O)Nc1ccc(/C=C/C(=O)O)cc1` [Example 1083] came in with an IC50 of 200 to 1000 nM.

With `O=C(Cn1c(-c2ccoc2)c(C2CCCCC2)c2ccc(C(=O)O)cc21)N[C@@H](Cc1ccc(O)cc1)C(=O)O` [Example 1055], the IC50 is below 200 nM. In turn, `O=C(O)c1ccc2c(C3CCCCC3)c(-c3ccoc3)n(CC(=O)N3CCSCC3)c2c1` [Example 1012] came in with an IC50 below 200 nM. In turn, `COc1ccc(CNC(=O)Cn2c(-c3ccoc3)c(C3CCCCC3)c3ccc(C(=O)O)cc32)cc1` [Example 1064] displayed an IC50 of 1000 to 10000 nM. Compound `CC(C)N(C)C(=O)Cn1c(-c2ccoc2)c(C2CCCCC2)c2ccc(C(=O)O)cc21` [Example 1118] gave an IC50 below 200 nM.

As for `CN(Cc1cccnc1)C(=O)Cn1c(-c2ccoc2)c(C2CCCCC2)c2ccc(C(=O)O)cc21` [Example 1114], the IC50 was 200 to 1000 nM. The same measure, in the same setting: the figure for `CN(C)CCCN(C)C(=O)Cn1c(-c2ccoc2)c(C2CCCCC2)c2ccc(C(=O)O)cc21` [Example 1019] is below 200 nM; for `O=C(Cn1c(-c2ccoc2)c(C2CCCCC2)c2ccc(C(=O)O)cc21)NCc1ccc(C(=O)O)cc1` [Example 1075] it is below 200 nM; for `O=C(O)c1ccc2c(C3CCCC3)c(-c3ccccn3)n(CC(=O)N3CCCC3)c2c1` [Example 1086] it is 200 to 1000 nM.

`O=C(O)c1ccc2c(C3CCCCC3)c(-c3csc4ccccc34)n(CC(=O)N3CCC(N4CCCC4)CC3)c2c1` [Example 1048]: the IC50 fell in the range of 200 to 1000 nM.

Consider `O=C(Cn1c(-c2ccoc2)c(C2CCCCC2)c2ccc(C(=O)O)cc21)Nc1cccc(C(=O)O)c1` [Example 1070], for which the IC50 was 200 to 1000 nM. Same read-out and setting: the figure for `O=C(O)CN1CCN(C(=O)Cn2c(-c3ccc(Br)cn3)c(C3CCCCC3)c3ccc(C(=O)O)cc32)CC1` [Example 1139] is below 200 nM; for `CCN(CC)C1CCN(C(=O)Cn2c(-c3ccoc3)c(C3CCCCC3)c3ccc(C(=O)O)cc32)C1` (stereo not drawn) [Example 1016] it is below 200 nM. For the compound `O=C(Cn1c(-c2ccc(Br)cn2)c(C2CCCCC2)c2ccc(C(=O)O)cc21)N[C@@H](Cc1c[nH]c2cc(O)ccc12)C(=O)O` [Example 1140], the IC50 lay within 200 to 1000 nM.

The assay is the same for the next values; noted with them: Table 2; HCV NS5B polymerase.
As to `Cc1cc(C)c(S(=O)(=O)NC(=O)c2ccc3c(C4CCCCC4)c(-c4ccoc4)n(CC(=O)N4CCOCC4)c3c2)c(C)c1` [Example 2044], the IC50 was below 200 nM.

With `O=C(NS(=O)(=O)C(Cl)(Cl)Cl)c1ccc2c(C3CCCCC3)c(-c3ccoc3)n(CC(=O)N3CCOCC3)c2c1` [Example 2045], the IC50 is below 200 nM. On the same count and under the same terms, with `COC(=O)c1ccccc1S(=O)(=O)NC(=O)c1ccc2c(C3CCCCC3)c(-c3ccoc3)n(CC(=O)N3CCOCC3)c2c1` [Example 2006] the figure was below 200 nM; with `O=C(NS(=O)(=O)C1CC1)c1ccc2c(C3CCCCC3)c(-c3ccoc3)n(CC(=O)N3CCOCC3)c2c1` [Example 2026], below 200 nM. Compound `COc1ccc(S(=O)(=O)NC(=O)c2ccc3c(C4CCCCC4)c(-c4ccoc4)n(CC(=O)N4CCOCC4)c3c2)cc1` [Example 2009] returned an IC50 below 200 nM.

`O=C(NS(=O)(=O)c1cccc2nsnc12)c1ccc2c(C3CCCCC3)c(-c3ccoc3)n(CC(=O)N3CCOCC3)c2c1` [Example 2035] yielded a half-inhibitory concentration (IC50) below 200 nM.

Staying with this assay, now noted: Table 3; HCV NS5B polymerase.
`NC(=O)[C@]1(NC(=O)c2ccc3c(C4CCCCC4)c(-c4ccoc4)n(CC(=O)N4CCOCC4)c3c2)CCNC1` [Example 3004]: the IC50 was below 200 nM.

The assay is the same for the next values; noted with them: Table 4; class ranges.
The compound `CN1CCN(C(=O)Cn2c(-c3ccoc3)c(C3CCCCC3)c3ccc(C(=O)NCC(=O)c4ccccc4)cc32)CC1` [Example 4031] gave an IC50 of 200 to 1000 nM.

As for `COc1ccc([C@@H](C)NC(=O)c2ccc3c(C4CCCCC4)c(-c4ccoc4)n(CC(=O)N4CCOCC4)c3c2)cc1OC` [Example 4063], the IC50 is 200 to 1000 nM. Consider `CN1CCN(C(=O)Cn2c(-c3ccoc3)c(C3CCCCC3)c3ccc(C(=O)NCCc4cccnc4)cc32)CC1` [Example 4040], for which the IC50 is 200 to 1000 nM. `CN1CCN(C(=O)Cn2c(-c3ccoc3)c(C3CCCCC3)c3ccc(C(=O)NC(C)(C)CO)cc32)CC1` [Example 4019] showed a half-inhibitory concentration (IC50) of 200 to 1000 nM. On the same count and under the same terms, the figure for `COc1ccc([C@@H](C)NC(=O)c2ccc3c(C4CCCCC4)c(-c4ccoc4)n(CC(=O)N4CCOCC4)c3c2)cc1` [Example 4051] is 200 to 1000 nM; for `O=C(NCc1ccccn1)c1ccc2c(C3CCCCC3)c(-c3ccoc3)n(CC(=O)N3CCOCC3)c2c1` [Example 4046] it is 200 to 1000 nM; for `CN(C)C(=O)Cn1c(-c2ccoc2)c(C2CCCCC2)c2ccc(C(=O)NCCc3ccncc3)cc21` [Example 4057] it is 200 to 1000 nM.

The compound `CN1CCC(NC(=O)c2ccc3c(C4CCCCC4)c(-c4ccoc4)n(CC(=O)N4CCOCC4)c3c2)(c2nc3ccc(C=CC(=O)O)cc3[nH]2)C1` (stereo not drawn) [Example 4069] registered an IC50 below 200 nM. Take `CN1CCN(C(=O)Cn2c(-c3ccoc3)c(C3CCCCC3)c3ccc(C(=O)NCc4cccnc4)cc32)CC1` [Example 4017]: the IC50 was 200 to 1000 nM.

Consider `CN1CCN(C(=O)Cn2c(-c3ccoc3)c(C3CCCCC3)c3ccc(C(=O)NC4(CO)CCCC4)cc32)CC1` [Example 4027], for which the 50% inhibitory concentration (IC50) was 200 to 1000 nM. `CN(C)C(=O)Cn1c(-c2ccoc2)c(C2CCCCC2)c2ccc(C(=O)NCc3ccccn3)cc21` [Example 4053] gave an IC50 of 200 to 1000 nM. In the case of `C[C@@H](NC(=O)c1ccc2c(C3CCCCC3)c(-c3ccoc3)n(CC(=O)N(C)C)c2c1)c1ccccc1` [Example 4058], the IC50 was below 200 nM. Take `COC(=O)C1(NC(=O)c2ccc3c(C4CCCCC4)c(-c4ccoc4)n(CC(=O)N4CCOCC4)c3c2)CCCCC1` [Example 4076]: the IC50 was in the range of 200 to 1000 nM. In the case of `CN1CCN(C(=O)Cn2c(-c3ccoc3)c(C3CCCCC3)c3ccc(C(=O)NCc4ccccn4)cc32)CC1` [Example 4015], the IC50 lay within 200 to 1000 nM. `CC(C)(NC(=O)c1ccc2c(C3CCCCC3)c(-c3ccoc3)n(CC(=O)N3CCC(N4CCCC4)CC3)c2c1)c1ccccc1` [Example 4060] yielded an IC50 of 200 to 1000 nM. The compound `CN(C)C(=O)Cn1c(-c2ccoc2)c(C2CCCCC2)c2ccc(C(=O)NCc3ccc4c(c3)OCO4)cc21` [Example 4052] came in with an IC50 of 200 to 1000 nM. For `CN1CCN(C(=O)Cn2c(-c3ccoc3)c(C3CCCCC3)c3ccc(C(=O)NCCc4ccccn4)cc32)CC1` [Example 4016], the IC50 is 200 to 1000 nM.

`NC(=O)C1(NC(=O)c2ccc3c(C4CCCCC4)c(-c4ccoc4)n(CC(=O)N4CCOCC4)c3c2)CCC1` [Example 4092] showed an IC50 below 200 nM. As to `CN1CCN(C(=O)Cn2c(-c3ccccn3)c(C3CCCCC3)c3ccc(C(N)=O)cc32)CC1` [Example 4001], the IC50 is 1000 to 10000 nM. `CNC(=O)c1ccc2c(C3CCCCC3)c(-c3ccoc3)n(CC(=O)N3CCOCC3)c2c1` [Example 4049] displayed an IC50 of 200 to 1000 nM. The compound `CNC(=O)C1(NC(=O)c2ccc3c(C4CCCCC4)c(-c4ccoc4)n(CC(=O)N4CCC(N5CCCC5)CC4)c3c2)CCC1` [Example 4089] had a 50% inhibitory concentration (IC50) below 200 nM. Still for that read-out and setting: with `COc1ccc(CNC(=O)c2ccc3c(C4CCCCC4)c(-c4ccccn4)n(CC(=O)N4CCN(C)CC4)c3c2)cc1OC` [Example 4002] the figure was 200 to 1000 nM.

Staying with this assay, now noted: Table 7; class ranges.
As to `O=C(Nc1ccccc1)c1ccc2c(c1)c(C1CCCCC1)c(-c1ccoc1)n2CC(=O)N1CCC(N2CCCC2)CC1` [Example 7023], the IC50 is 1000 to 10000 nM. The same measure, in the same setting: the figure for `O=C(NC1CCN(Cc2ccccc2)C1)c1ccc2c(c1)c(C1CCCCC1)c(-c1ccoc1)n2CC(=O)N1CCC(N2CCCC2)CC1` (stereo not drawn) [Example 7040] is 1000 to 10000 nM; for `CC(C)CC(NC(=O)c1ccc2c(c1)c(C1CCCCC1)c(-c1ccoc1)n2CC(=O)N1CCC(N2CCCC2)CC1)C(N)=O` (stereo not drawn) [Example 7046] it is 1000 to 10000 nM; for `O=C(O)c1ccc(CNC(=O)c2ccc3c(c2)c(C2CCCCC2)c(-c2ccoc2)n3CC(=O)N2CCC(N3CCCC3)CC2)cc1` [Example 7045] it is 1000 to 10000 nM. On to `COC(=O)c1cc2c(cc1O)c(C1CCCCC1)c(-c1ccoc1)n2CC(=O)N1CCC(N2CCCC2)CC1` [Example 7010], for which the IC50 was 1000 to 10000 nM. Same read-out and setting: with `CC(C)(C)NC(=O)[C@@H]1Cc2ccccc2CN1C(=O)c1ccc2c(c1)c(C1CCCCC1)c(-c1ccoc1)n2CC(=O)N1CCC(N2CCCC2)CC1` [Example 7061] the figure was 1000 to 10000 nM; with `COc1ccc(CNC(=O)c2ccc3c(c2)c(C2CCCCC2)c(-c2ccoc2)n3CC(=O)N2CCC(N3CCCC3)CC2)cc1OC` [Example 7028], 1000 to 10000 nM; with `CN1C(C)(C)CC(NC(=O)c2ccc3c(c2)c(C2CCCCC2)c(-c2ccoc2)n3CC(=O)N2CCC(N3CCCC3)CC2)CC1(C)C` [Example 7053], 200 to 1000 nM. Compound `Cc1oc(-c2ccc(NC(=O)c3ccc4c(c3)c(C3CCCCC3)c(-c3ccoc3)n4CC(=O)N3CCC(N4CCCC4)CC3)cc2)cc1C(=O)O` [Example 7048] came in with an IC50 of 1000 to 10000 nM.
